Laboratory results taken from PubChem BioAssay AID248 (DTP/NCI, 2004).
Values joined by “and” are separate entries in the source; they are usually repeats but may differ in a detail not shown here. Equal entries are not always repeated. Inconclusive results and toxic doses are left out. Rule as the data show it: active = T/C of 150% or more; inactive = T/C below 125%.

Tested on: L1210 leukemia ip in BDF1 mice, survival T/C
Assay: NCI In Vivo Anticancer Drug Screen. Data for tumor model L1210 Leukemia (intraperitoneal) in B6D2F1 (BDF1) mice
Settings: endpoint: mean survival time, higher = longer survival
Outline: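 Tumor was transplanted into mice, which were then dosed with test compound or vehicle alone. Survival was recorded for each group, and the treated figure was expressed relative to the control figure.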

[1] = dose: 100.0 mg/kg/injection, schedule: Q01DX009 (ip), vehicle: saline
[2] = dose: 100.0 mg/kg/injection, schedule: Q04DX003 (ip), vehicle: saline
[3] = dose: 200.0 mg/kg/injection, schedule: Q01DX009 (ip), vehicle: saline
[4] = dose: 200.0 mg/kg/injection, schedule: Q04DX003 (ip), vehicle: saline
[5] = dose: 400.0 mg/kg/injection, schedule: Q04DX003 (ip), vehicle: saline
[6] = dose: 100.0 mg/kg/injection, schedule: Q01DX009 (ip), vehicle: saline with Tween-80
[7] = dose: 200.0 mg/kg/injection, schedule: Q01DX009 (ip), vehicle: saline with Tween-80
[8] = dose: 100.0 mg/kg/injection, schedule: Q01DX009 (ip), vehicle: Klucel (hydroxypropylcellulose) (HPC)
[9] = dose: 100.0 mg/kg/injection, schedule: Q04DX003 (ip), vehicle: Klucel (hydroxypropylcellulose) (HPC)
[10] = dose: 200.0 mg/kg/injection, schedule: Q01DX009 (ip), vehicle: Klucel (hydroxypropylcellulose) (HPC)
[11] = dose: 200.0 mg/kg/injection, schedule: Q04DX003 (ip), vehicle: Klucel (hydroxypropylcellulose) (HPC)
[12] = dose: 400.0 mg/kg/injection, schedule: Q04DX003 (ip), vehicle: Klucel (hydroxypropylcellulose) (HPC)
[13] = dose: 400.0 mg/kg/injection, schedule: Q01DX009 (ip), vehicle: Klucel (hydroxypropylcellulose) (HPC)
[14] = dose: 50.0 mg/kg/injection, schedule: Q04DX003 (ip), vehicle: Klucel (hydroxypropylcellulose) (HPC)
[15] = dose: 5.0 mg/kg/injection, schedule: Q01DX001 (ip), vehicle: saline
[16] = dose: 10.0 mg/kg/injection, schedule: Q01DX001 (ip), vehicle: saline
[17] = dose: 100.0 mg/kg/injection, schedule: Q01DX001 (ip), vehicle: Klucel (hydroxypropylcellulose) (HPC)
[18] = dose: 200.0 mg/kg/injection, schedule: Q01DX001 (ip), vehicle: Klucel (hydroxypropylcellulose) (HPC)
[19] = dose: 400.0 mg/kg/injection, schedule: Q01DX001 (ip), vehicle: Klucel (hydroxypropylcellulose) (HPC)
[20] = dose: 100.0 mg/kg/injection, schedule: Q04DX003 (ip), vehicle: saline with Tween-80
[21] = dose: 200.0 mg/kg/injection, schedule: Q04DX003 (ip), vehicle: saline with Tween-80
[22] = dose: 400.0 mg/kg/injection, schedule: Q04DX003 (ip), vehicle: saline with Tween-80
[23] = dose: 100.0 mg/kg/injection, schedule: Q04DX002 (ip), vehicle: Klucel (hydroxypropylcellulose) (HPC)
[24] = dose: 200.0 mg/kg/injection, schedule: Q04DX002 (ip), vehicle: Klucel (hydroxypropylcellulose) (HPC)
[25] = dose: 400.0 mg/kg/injection, schedule: Q04DX002 (ip), vehicle: Klucel (hydroxypropylcellulose) (HPC)

Measured: T/C

CC(N)Cc1ccc(O)cc1 (stereo unspecified)
inactive: dose: 25.0 mg/kg/injection, schedule: Q01DX009 (ip), vehicle: saline 108 % of control | dose: 25.0 mg/kg/injection, schedule: Q04DX003 (ip), vehicle: saline 100 % of control | dose: 50.0 mg/kg/injection, schedule: Q01DX009 (ip), vehicle: saline 103 % of control | dose: 50.0 mg/kg/injection, schedule: Q04DX003 (ip), vehicle: saline 94 % of control | [1] 101 % of control | [2] 96 % of control | [3] 93 % of control | [4] 100 % of control | [5] 94 % of control

COc1ccc(CN2CCCN(Cc3ccc(OC)cc3OC)C2c2ccc(N(C)C)cc2Cl)c(OC)c1
inactive: dose: 50.0 mg/kg/injection, schedule: Q01DX001 (ip), vehicle: saline 97 % of control | dose: 100.0 mg/kg/injection, schedule: Q01DX001 (ip), vehicle: saline 101 % of control | dose: 200.0 mg/kg/injection, schedule: Q01DX001 (ip), vehicle: saline 95 % of control | dose: 400.0 mg/kg/injection, schedule: Q01DX001 (ip), vehicle: saline 95 % of control

CCOC(=O)CCC(=O)c1cccc([N+](=O)[O-])c1
inactive: [6] 98 % of control | [7] 96 % of control | dose: 400.0 mg/kg/injection, schedule: Q01DX009 (ip), vehicle: saline with Tween-80 96 % of control

O=C(Nc1ccc(S(=O)(=O)Nc2ccc(N=Nc3ccccc3)cc2)cc1)C(SC1=NC=NC2=NC=NC21)(SC1=NC=NC2=NC=NC21)SC1=NC=NC2=NC=NC21 (stereo unspecified)
inactive: dose: 75.0 mg/kg/injection, schedule: Q04DX003 (ip), vehicle: saline 104 % of control | dose: 150.0 mg/kg/injection, schedule: Q04DX003 (ip), vehicle: saline 109 % of control | dose: 300.0 mg/kg/injection, schedule: Q04DX003 (ip), vehicle: saline 100 % of control

S=P(/C=C/c1ccccc1)(c1ccccc1)c1ccccc1
inactive: [8] 97 % of control | [9] 95 % of control | [10] 92 % of control | [11] 92 % of control | [12] 92 % of control

CCCCCCCCCCCCNC(=O)CCl
inactive: [8] 87 % of control | [9] 91 % of control | [10] 90 % of control | [11] 89 % of control | [13] 91 % of control

Clc1ccc2c(NCCN3CCCCCC3)nc(C(Cl)(Cl)Cl)nc2c1
inactive: dose: 75.0 mg/kg/injection, schedule: Q01DX001 (ip), vehicle: other 103 % of control | dose: 150.0 mg/kg/injection, schedule: Q01DX001 (ip), vehicle: other 97 % of control

Fc1c(F)c(F)c(Oc2c(F)c(F)c3c(c2F)C2C=CC3O2)c(F)c1F (stereo unspecified)
inactive: [14] 95 % of control | [9] 93 % of control | [11] 93 % of control

CC1(C(=O)O)NC(C(=O)O)CS1 (stereo unspecified)
inactive: [15] 96 % of control | [16] 108 % of control | dose: 20.0 mg/kg/injection, schedule: Q01DX001 (ip), vehicle: saline 104 % of control | dose: 40.0 mg/kg/injection, schedule: Q01DX001 (ip), vehicle: saline 102 % of control | dose: 80.0 mg/kg/injection, schedule: Q01DX001 (ip), vehicle: saline 98 % of control

OCCC1(CCO)CCCCC1
inactive: dose: 25.0 mg/kg/injection, schedule: Q01DX009 (ip), vehicle: saline with Tween-80 99 % of control | dose: 25.0 mg/kg/injection, schedule: Q04DX003 (ip), vehicle: saline with Tween-80 114 % of control | dose: 50.0 mg/kg/injection, schedule: Q01DX009 (ip), vehicle: saline with Tween-80 95 % of control | dose: 50.0 mg/kg/injection, schedule: Q04DX003 (ip), vehicle: saline with Tween-80 104 % of control | [6] 95 % of control and 108 % of control

CC12CCC(=O)C=C1CCC1C2CCC2(C)C(C(=O)CC(O)(C(F)(F)F)C(F)(F)F)CCC12 (stereo unspecified)
inactive: [17] 94 % of control | [18] 96 % of control | [19] 96 % of control

CCC12CCC(Br)C(C1)OC2=O (stereo unspecified)
inactive: [20] 98 % of control | [21] 91 % of control | [22] 93 % of control

CNCc1ccccc1C(O)c1ccc(Cl)cc1 (stereo unspecified)
inactive: dose: 3.12 mg/kg/injection, schedule: Q01DX009 (ip), vehicle: Klucel (hydroxypropylcellulose) (HPC) 98 % of control | dose: 6.25 mg/kg/injection, schedule: Q01DX009 (ip), vehicle: Klucel (hydroxypropylcellulose) (HPC) 96 % of control | dose: 12.5 mg/kg/injection, schedule: Q01DX009 (ip), vehicle: Klucel (hydroxypropylcellulose) (HPC) 96 % of control | dose: 25.0 mg/kg/injection, schedule: Q01DX009 (ip), vehicle: Klucel (hydroxypropylcellulose) (HPC) 94 % of control | dose: 25.0 mg/kg/injection, schedule: Q04DX003 (ip), vehicle: Klucel (hydroxypropylcellulose) (HPC) 97 % of control and 98 % of control | dose: 50.0 mg/kg/injection, schedule: Q01DX009 (ip), vehicle: Klucel (hydroxypropylcellulose) (HPC) 102 % of control | [14] 94 % of control | [8] 86 % of control | [9] 104 % of control | [11] 122 % of control

CS(=O)(=O)c1ccccc1
inactive: [23] 102 % of control | [24] 91 % of control | [25] 102 % of control

CN(N=Nc1ccccc1C(=O)NN)C1CCCCC1
inactive: dose: 100.0 mg/kg/injection, schedule: Q01DX009 (ip), vehicle: other 117 % of control | dose: 200.0 mg/kg/injection, schedule: Q01DX009 (ip), vehicle: other 114 % of control

COc1ccc(C(=O)NC(=S)Nc2cccc(Cl)c2)cc1
inactive: [8] 91 % of control | [9] 94 % of control | [10] 98 % of control | [11] 91 % of control | [13] 87 % of control | [12] 93 % of control

CN1CCCC(=O)NC1=O
inactive: [1] 96 % of control | [2] 104 % of control | [3] 97 % of control | [4] 98 % of control | dose: 400.0 mg/kg/injection, schedule: Q01DX009 (ip), vehicle: saline 102 % of control | [5] 95 % of control

Cc1ccc(NC(=O)c2cccc(F)c2)cc1Cl
inactive: [17] 97 % of control | [8] 94 % of control and 92 % of control | [23] 101 % of control and 104 % of control | [18] 100 % of control | [10] 105 % of control and 92 % of control | [24] 96 % of control and 104 % of control | [19] 100 % of control | [13] 97 % of control and 92 % of control | [25] 104 % of control and 109 % of control

Cc1ccc(CCC(=O)O)c2ccccc12
inactive: [23] 93 % of control | [24] 87 % of control

c1ccc2c(c1)cc[n+]1c3ccccc3ccc21
inactive: dose: 1.25 mg/kg/injection, schedule: Q01DX001 (ip), vehicle: saline 97 % of control | dose: 2.5 mg/kg/injection, schedule: Q01DX001 (ip), vehicle: saline 97 % of control | [15] 103 % of control | [16] 107 % of control

CC1(C)COP(Oc2ccccc2)OC1
inactive: [6] 100 % of control | [20] 107 % of control | [7] 97 % of control | [21] 103 % of control | [22] 107 % of control

C[C@@H]1C[C@@]2(C)[C@@H](CC[C@@H]3[C@@H]2CC[C@]2(C)[C@@H](O)CC[C@@H]32)C[C@@H]1O
inactive: dose: 62.5 mg/kg/injection, schedule: Q01DX015 (sc), vehicle: steriod suspending solution 100 % of control | dose: 125.0 mg/kg/injection, schedule: Q01DX015 (sc), vehicle: steriod suspending solution 94 % of control | dose: 250.0 mg/kg/injection, schedule: Q01DX015 (sc), vehicle: steriod suspending solution 102 % of control | dose: 500.0 mg/kg/injection, schedule: Q01DX015 (sc), vehicle: steriod suspending solution 94 % of control
